Converted amounts (≈) assume the structure as drawn. Numbered stars: 1 amine (or outer) side, 2 acyl side, 3 side chain; on linkers, the order of the positions; unused ones are H or OH. Bridge positions count the residues as written; N and C are the ends. Square brackets hold non-standard residues; d marks the D form. Peptide text beside a SMILES is read from it. ξ: configuration not given here. X1 = CCCCCCCCCCCC(O[C@H]1OC[C@H](O)[C@@H](O)[C@@H]1O)C(O)C(O)CC(CC(=O)[*:1])N[*:2]; X2 = CCCCCCCCCCCC(O)C(O)C(O)CC(CC(=O)[*:2])N[*:1]; Asn(3S-OH) = NC(=O)[C@@H](O)[C@H](N)C(=O)O; ξTyr(βOH) = NC(C(=O)O)C(O)c1ccc(O)cc1
Experiments:
Experiment in all cases: Microtitre 2-fold serial dilution MIC assay
Type in all cases: cell-based
Candida albicans = details: C. albicans; 30° C., 4 days, turbidity
Aspergillus niger = details: A. niger; 30° C., 4 days, turbidity
Saccharomyces cerevisiae = details: S. cerevisiae; 30° C., 4 days, turbidity
Method: Anti-fungal activity for the present compounds was determined using microtitre format. Microtitre plates (96 wells: rows A-H, columns 1-12) were filled by the following protocol to give 2-fold serial dilutions of each of Bk-1229 and Bk-1097. Samples of Bk-1229 and Bk-1097 were dissolved in 1/10-strength BHIB containing 0.1% (w/v) dimethylsulfoxide (DMSO). Aliquots (50 μL) of 1/10-strength BHIB containing 0.1 (w/v) % DMSO (pH 7.4) were added to all wells except those in column 1. The wells in column 1 received 100 μL of the solutions of Bk-1229 or Bk-1097 and 50 μL was removed and mixed with the medium in the second well. This process was repeated through well 11, at which point an aliquot (50 μL) was removed and discarded. Well 12 was the blank (positive growth) control, BHIB+DMSO only. The test microorganisms employed in this example were Saccharomyces cerevisiae, Candida albicans, and Aspergillus niger, which were obtained from the Virginia Tech Microbiology Culture Collection. Cells of S. cerevisiae and C. albicans were grown in sterile 1/10-strength Brain Heart Infusion Broth (BHIB) and incubated at 30° C. for 18 h. Cells were counted as colony forming units on 1/10-strength BHIB agar. Spore suspensions of A. niger were prepared from lawns of sporulating colonies on 1/10-strength BHIB agar. The number of spores was determined by counting spores microscopically in a Petroff-Hauser counting chamber. The resulting culture or spore suspensions were diluted to 10^5 cells or spores/mL. Following the preparation of the dilution series, 50 μL of microbial inocula (10^5/mL) were added to each well in a row. The concentration of Bk-1229 and Bk-1097 ranged from 50 to 0.05 μg/mL. After the plates were incubated at 30° C. for 4 days, measurement of minimal inhibitory concentration (MIC) results were read by comparing the turbidity (due to microbial growth) of each test well to the positive control wells. The measured MICs for each of burkholdines are summarized as follow: […]

Row | SMILES | MIC (Candida albicans) | MIC (Aspergillus niger) | MIC (Saccharomyces cerevisiae)
1 | CCCCCCCCCCCC(O[C@H]1OC[C@H](O)[C@@H](O)[C@@H]1O)C(O)C(O)CC1CC(=O)N[C@H](CO)C(=O)NC(C(O)c2ccc(O)cc2)C(=O)N[C@H](CC(N)=O)C(=O)NCC(=O)N[C@@H](CC(N)=O)C(=O)N[C@@H](CO)C(=O)N[C@@H]([C@H](O)C(N)=O)C(=O)N1 (stereo partly drawn) [Bk-1229 (1), burkholdine 1229] ([dS][ξTyr(βOH)][dN]GNS[Asn(3S-OH)]; linker N-C via X1) | 12.5 µg/mL (≈ 10.2 µM) | 12.5 µg/mL (≈ 10.2 µM) | 0.4 µg/mL (≈ 0.325 µM)
2 | CCCCCCCCCCCC(O)C(O)C(O)CC1CC(=O)N[C@H](CO)C(=O)NC(C(O)c2ccc(O)cc2)C(=O)N[C@H](CC(N)=O)C(=O)NCC(=O)N[C@@H](CC(N)=O)C(=O)N[C@@H](CO)C(=O)N[C@@H]([C@H](O)C(N)=O)C(=O)N1 (stereo partly drawn) [Bk-1097 (2), burkholdine 1097] (cyclo(GNS[Asn(3S-OH)][X2][dS][ξTyr(βOH)][dN])) | 12.5 µg/mL (≈ 11.4 µM) | 1.6 µg/mL (≈ 1.46 µM) | 1.6 µg/mL (≈ 1.46 µM)
3 | C[C@@H]1[C@H](O)[C@@H](C)/C=C/C=C/C=C/C=C/C=C/C=C/C=C/[C@H](O[C@@H]2O[C@H](C)[C@@H](O)[C@H](N)[C@@H]2O)C[C@@H]2O[C@](O)(C[C@@H](O)C[C@@H](O)[C@H](O)CC[C@@H](O)C[C@@H](O)CC(=O)O[C@H]1C)C[C@H](O)[C@H]2C(=O)O [Amphetericin B, reference compound] | 25 µg/mL (≈ 27.1 µM) | 25 µg/mL (≈ 27.1 µM) | 25 µg/mL (≈ 27.1 µM)

From patent publication US9139616B2, “Isolation, identification, and uses of antifungal compounds” (priority 2010, dated 2015)
